Where “and” joins values, the source holds several entries; their conditions need not be identical. Equal values may be shown once. Calls of active or inactive are those of the source.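 The calls were made as follows: active = compounds giving half or more protection of infected cells from virus-caused growth loss, again on retest; inactive = the rest.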
Test system: CEM cells HIV-1 protection, formazan growth assay
Assay: NCI AIDS Antiviral Assay
Conditions: for IC50: measured here: growth of uninfected CEM cells
Method in brief: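 Category rules: moderately active means at least 50% protection on retest, and confirmed active means 100% protection reproducibly. The underlying data came from a formazan growth assay in HIV-1-infected CEM cells.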

| SMILES | EC50 [µM] | IC50 | outcome |
| --- | --- | --- | --- |
| O=C(O)C(Cc1ccc(O)cn1)NC(=O)C(F)(F)F (stereo unspecified) | > 200 | > 200 µM |  |
| Cc1ccccc1NC(=O)C(=O)C(C#N)c1ccccc1C (stereo unspecified) | > 17.8 | > 17.8 µM |  |
| CC1(C)OC2OC3C(I)CN(C(=O)OCc4ccccc4)C3C2O1 (stereo unspecified) | > 200 | 110 µM |  |
| Cc1ccc(NC(=O)CC/C(CC(=O)C(C)(C)C)=N/NC(=O)C(N)=O)cc1C | > 324 | > 324 µM |  |
| Cn1c2ccccc2c2nnc(NCCCCO)nc21 | > 200 | > 200 µM |  |
| Cc1ccc(S(=O)(=O)c2ccccc2)cc1 | > 155 | > 155 µM |  |
| Nc1ncnc2c1nc(Br)n2C(C=O)OC(C=O)CO (stereo unspecified) |  |  | inactive |
| Oc1cccc2ccc(SSc3ccc4cccc(O)c4n3)nc12 | > 200 | 20.4 µM |  |
| CCCc1c(C(=O)OCC)[nH]c(C(=O)CCC(=O)c2[nH]c(C(=O)OCC)c(CCC)c2C(=O)OCC)c1C(=O)OCC | > 17 | > 17 µM |  |
| CCC(C)N1CN(c2ccccc2)C2(CCN(CC3COc4ccccc4O3)CC2)C1=O (stereo unspecified) | > 200 | 29.5 µM |  |
| CCCCNC(=NCc1ccccc1)NC#N | > 407 | 295 µM |  |
| CCOC(=S)SC1OC(COC(C)=O)C(OC(C)=O)C(OC(C)=O)C1OC(C)=O (stereo unspecified) | > 200 | 35.5 µM |  |
| COc1cc2c(cc1Oc1c(Oc3c(O)c(OC)cc4c3C(CC(C)C)N(C)CC4)c(OC)cc3c1C(CC(C)C)N(C)CC3)C(CC(C)C)N(C)CC2 (stereo unspecified) |  |  | inactive |
| CC(=O)/C(C)=C(/C)[O-].CC(=O)/C(C)=C(/C)[O-].NCCNCCCNC(=O)c1cccc2cc3ccccc3nc12.[Co+3].[O-][Cl+3]([O-])([O-])[O-] | > 100 | 3.47 µM |  |
| O=P(O)(O)OP(=O)(O)O.[NH-]CC[NH-].[NH-]CC[NH-].[Pd+2].[Pd+2] | > 200 | 102 µM |  |
| Cc1[nH]c(=O)[nH]c(=O)c1C(=O)O | > 200 | > 200 µM |  |
| Cc1cc(S(=O)(=O)Nc2nc(N)n(C)n2)c(S)cc1Cl | > 200 | > 200 µM |  |
| COCn1c(C)c(C)c2c(=O)oc(=O)[nH]c21 | > 200 | > 200 µM |  |
| COc1ccc(-c2csc(=[N+]3CCCCC3)s2)cc1 |  |  | inactive |
| Nc1nc(N)n2c(N)nnc2n1 | > 200 | > 200 µM |  |
| Cc1cc(C)nc(NS(=O)(=O)c2ccc(NN=c3c4ccccc4n(C)c4ccccc34)cc2)n1 | > 200 | 11.2 µM |  |
| CC(=O)Nc1ccc(S(=O)(=O)c2ccc(NC(=O)c3ccccc3SC(=O)CCCC[n+]3ccccc3)cc2)cc1 | 13.5 | > 200 µM |  |

| SMILES | EC50 [µM] | IC50 | outcome |
| --- | --- | --- | --- |
| COC(=O)C1=CC(=O)N2CCN=C2S1 | > 200 | > 200 µM |  |
| CC(=O)OCCCCCn1cnc(C(N)=O)c1N | > 200 | > 200 µM |  |
| O=C1NC(=O)C(=Cc2cccnc2)C(=O)N1 | > 200 | > 200 µM |  |
| CCCCCNP1(NCCCCC)=NP(NCCCCC)(NCCCCC)=NP(NCCCCC)(NCCCCC)=NP(NCCCCC)(NCCCCC)=N1 | > 50.1 | > 50.1 µM |  |
| CC12CCC(C)(c3cc(O)c(O)cc31)c1cc(O)c(O)cc12 |  |  | inactive |
| COc1cc2c(c(OC)c1OC)-c1cccc(=O)cc1C(NC(C)=O)CC2 (stereo unspecified) | > 2 | 0.0389 µM |  |
| CC(C)CCCC(C)[C@H]1CCC2C3CCC4C[C@@H](CCCC(c5cc(Cl)c(O)c(C(=O)O)c5)c5cc(Cl)c(O)c(C(=O)O)c5)CC[C@]4(C)C3CC[C@@]21C (stereo partly specified) | 8.91 | > 200 µM |  |
| CN1C(OCc2ccccc2)c2c(ccc3c2OCO3)C2C=Cc3cc4c(cc3C21)OCO4 (stereo unspecified) | > 11.7 | 0.676 µM |  |
| O=C1CN(c2cccc(Cl)c2)C(=O)CN1CCN1CC(=O)N(c2cccc(Cl)c2)CC1=O | > 200 | > 200 µM |  |
| CCN(CC)CCCC(C)Nc1cc(-c2ccccc2)nc2cc(Cl)ccc12 (stereo unspecified) | > 427 | 2.45 µM |  |
| O=C1C=CC(=O)c2nc(-c3ccccc3)c(-c3ccccc3)nc21 | 0.363 | 12 µM |  |
| C=CCNc1nc2c(s1)C(=O)c1ccccc1C2=O | > 13.8 | 8.32 µM |  |
| N#CC1CC2(C1)OCCS2 (stereo unspecified) |  |  | inactive |
| CNCCS(=O)(=O)O | > 200 | > 200 µM |  |
| COc1cc(C)cc2c(-c3c(OC(C)=O)cc(OC(C)=O)c4c3C[C@H](C)N(C(C)=O)[C@H]4C)cc(-c3cc(-c4c(OC(C)=O)cc(OC(C)=O)c5c4C[C@H](C)N(C(C)=O)[C@H]5C)c4cc(C)cc(OC)c4c3O)c(O)c12 | > 200 | 40.7 µM |  |
| C=C(Br)CNCC(=C)Br | > 200 | 129 µM |  |
| CCCCCCCCCCCCCCCCCC(=O)NCCCNCCCNC(=O)CCCCCCCCCCCCCCCCC | > 12.6 | > 12.6 µM |  |
| N/N=C1/CCCc2nonc21 | > 200 | > 200 µM |  |
| Cc1cc(Cl)ccc1NC(=O)C(=O)Cc1nc2ccc(C(=O)c3ccccc3)cc2[nH]c1=O | > 77.6 | > 77.6 µM |  |
| O=C(c1ccccc1)c1cc2c([nH]c1=O)CCCCCC2 | > 200 | > 200 µM |  |
| CCc1ccccc1NNc1cc(=O)[nH]c(=O)[nH]1 | > 200 | 27.5 µM |  |
| Cc1ccc(/C=C2\CN(C)CC3C2=NN(c2ccccc2)C3c2ccc(C)cc2)cc1 (stereo unspecified) | > 200 | > 200 µM |  |

| SMILES | EC50 [µM] | IC50 | outcome |
| --- | --- | --- | --- |
| O=C1NN2CCN=C2c2ncccc21 | > 933 | > 933 µM |  |
| CSC(=S)CC(O)[C@@H]1CC2c3ccccc3C1c1ccccc12 (stereo partly specified) | > 200 | 3.47 µM |  |
| CC1=C(C)C(=O)c2c(cc3ccccn23)C1=O |  |  | inactive |
| CCC1CC2C(=O)N(c3ccccc3)C(=O)C2c2[nH]c3ccccc3c21 (stereo unspecified) |  |  | inactive |
| Cc1cccc(N=Nc2ccc(O)c(CN(C)C)c2)c1 | > 200 | 34.7 µM |  |
| N#C/C(c1nc2ccccc2[nH]1)=c1\s/c(=C/c2ccc(Cl)cc2)c(=O)n1-c1ccccc1 | > 200 | 107 µM |  |
| O=C1C[C@@H]2C(COC(=O)c3ccccc3)N(OCc3ccccc3)C[C@@H]2O1 (stereo partly specified) | > 97.7 | > 97.7 µM |  |
| CC1=C(C(=O)Nc2ccccc2)C(c2ccc(C3C(C(=O)Nc4ccccc4)=C(C)NC(C)=C3C(=O)Nc3ccccc3)cc2)C(C(=O)Nc2ccccc2)=C(C)N1 | > 12.9 | 2.4 µM |  |
| O=c1c2cc([N+](=O)[O-])ccc2sc2ccsc12 | > 97.7 | > 97.7 µM |  |
| CC(=O)OCC1OC([n+]2c([O-])cc(=O)n3ccsc32)C(OC(C)=O)C1OC(C)=O (stereo unspecified) | > 589 | > 589 µM |  |
| CC(=O)Nc1ccc(C(=O)N2N=C(C)/C(=C/c3ccc(O)cc3)C2=O)cc1 | > 37.2 | > 37.2 µM |  |
| Cc1ccc(C2=C(c3ccccc3)C(Br)(c3ccc(C)cc3)C(c3ccccc3)=C2c2ccc(C)cc2)cc1 | > 2.51 | > 2.51 µM |  |
| O=S(=O)(CCC[C@H]1[C@@H](CCOCc2ccccc2)C2CCCN1O2)c1ccccc1 (stereo partly specified) | > 200 | 95.5 µM |  |
| COc1ccc(N=N/C(=N/NC(=O)c2cc(Cl)ccc2C(=O)c2ccccc2)c2ccc(N(CCC#N)CCC#N)cc2C)cc1 | > 100 | 14.1 µM |  |
| COc1cc(C(=O)NC2CCc3cc(OC)c(OC)c(OC)c3-c3ccc(OC)c(=O)cc32)cc(OC)c1OC (stereo unspecified) | > 0.2 | 0.0661 µM |  |
| C(/C=C/c1ccccc1)=Nc1ccc(SSc2ccc(N=C/C=C/c3ccccc3)cc2)cc1 | > 200 | 16.6 µM |  |
| COC(=O)c1ccc(NCc2cc(O)c3ccccc3c2O)cc1 | > 200 | 3.02 µM |  |
| O=S(=O)(O)C(O)C(F)(F)C(F)(F)C(F)(F)F (stereo unspecified) | > 200 | > 200 µM |  |
| [Cu+2].[O-]/C(=N\N=C/c1cccc(F)c1)c1ccncc1.[O-]/C(=N\N=C\c1cccc(F)c1)c1ccncc1 | > 100 | 24.5 µM |  |
| O=C(NC1C=CCC2C(=O)N(c3ccccc3)C(=O)C12)OCc1ccccc1 (stereo unspecified) |  |  | inactive |
| CCCCc1c2c(nc3c1CCCC3O)/C(=C/c1ccccc1)CCC2 (stereo unspecified) | > 6.31 | > 6.31 µM |  |
| O=c1c(Sc2c(SCSc3cnc4ccccc4c3Sc3c[nH]c4ccccc4c3=O)cnc3ccccc23)c[nH]c2ccccc12 | > 100 | > 100 µM |  |

| SMILES | EC50 [µM] | IC50 | outcome |
| --- | --- | --- | --- |
| C=C(C(=O)O)C1CC[C@@]2(C)CCC[C@@](C)(O)C2C1 (stereo partly specified) | > 200 | > 200 µM |  |
| CCc1nc(N)nc(N)c1-c1ccc(Cl)c(Cl)c1 | > 200 | 1.45 µM |  |
| Oc1ccc2c(c1)-c1c(c3cc(O)ccc3n1CCN1CCOCC1)CC2 |  |  | inactive |
| CCCCCC12OCC(C)(C)N1O2 (stereo unspecified) | > 200 | 126 µM |  |
| CC(=O)OCC1OC(n2c(=O)[nH]c(=O)c3n[nH]nc32)C(OC(C)=O)C(OC(C)=O)C1OC(C)=O (stereo unspecified) | > 269 | > 269 µM |  |
| Cc1ccc2c(c1)[nH]c(=S)n2/C=C(/c1ccc(Cl)cc1)S(=O)(=O)Cc1ccc(Cl)cc1 | > 200 | > 200 µM |  |
| Brc1ccc(C2=CSC3=NCCN23)cc1 | > 200 | 23.4 µM and 107 µM |  |
| Cc1cc(=O)oc2c3c4c(cc12)CCCN4CCC3 | > 14.8 | > 14.8 µM |  |
| COc1cccc2c(N)c3cccc(C(=O)NCCN(C)C)c3nc12 | > 0.2 | 0.0331 µM |  |
| C/C(=C\CNc1ncnc2nc(Cl)[nH]c12)CO | > 200 | > 200 µM |  |
| CCNCCNC(=O)c1ccc(Br)cc1 |  |  | inactive |
| COCOc1c(C(OCOC)c2cnc(Sc3ccccc3)n2C)ccc(OC)c1OC (stereo unspecified) | > 200 | 110 µM |  |
| O=[N+]([O-])c1cc2cnn(CO)c2cc1[N+](=O)[O-] | > 200 | 16.6 µM |  |
| O=[N+]([O-])c1nccn1CCCNc1c2ccccc2nc2ccccc12 |  |  | inactive |
| COC1CC(C)(N)C(O)C(C)O1 (stereo unspecified) | > 200 | > 200 µM |  |
| CC(=O)C(N)=Nc1ccccc1 | > 1550 | > 1550 µM |  |
| O=C1c2ccccc2C(=O)N1CC(CN1C(=O)c2ccccc2C1=O)(C(=O)OCc1ccccc1)C(=O)OCc1ccccc1 | > 200 | > 200 µM |  |
| CN(C)c1ccc(/C=C(/C#N)c2ccc(Cl)cc2)cc1 | > 100 | 1.23 µM |  |
| Oc1ccc(Cl)cc1Cc1ccccc1 | > 200 | 39.8 µM |  |
| COC1OC2C(CO)OC(n3ncc4c3ncn3cnnc43)C2O1 (stereo unspecified) | > 234 | > 234 µM |  |

Reference: PubChem BioAssay AID179 (DTP/NCI, 2004)
